{"source": "ChEMBL document CHEMBL1909046", "about": "“DrugMatrix in vitro pharmacology data”", "key": {"Cytochrome P450 2C19": {"molecular_target": "Cytochrome P450 2C19 (Homo sapiens, UniProt P33261)", "sequence (P33261 whole entry)": "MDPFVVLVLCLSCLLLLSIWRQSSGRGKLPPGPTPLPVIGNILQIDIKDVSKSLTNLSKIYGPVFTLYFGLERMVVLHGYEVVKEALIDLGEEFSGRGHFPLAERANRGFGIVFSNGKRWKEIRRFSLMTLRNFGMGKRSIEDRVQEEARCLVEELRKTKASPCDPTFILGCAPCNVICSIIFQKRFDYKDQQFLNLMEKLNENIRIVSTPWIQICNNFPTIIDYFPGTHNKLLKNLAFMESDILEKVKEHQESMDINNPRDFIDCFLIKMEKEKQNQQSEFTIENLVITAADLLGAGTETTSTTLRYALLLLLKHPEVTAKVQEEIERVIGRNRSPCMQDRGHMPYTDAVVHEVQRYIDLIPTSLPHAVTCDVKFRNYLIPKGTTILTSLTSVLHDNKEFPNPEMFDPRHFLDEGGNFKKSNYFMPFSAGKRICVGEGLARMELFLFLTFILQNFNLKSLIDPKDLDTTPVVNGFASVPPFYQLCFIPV"}, "Glucocorticoid receptor [1]": {"molecular_target": "T1, Glucocorticoid receptor (Homo sapiens, UniProt P04150)", "T1 sequence (P04150 whole entry)": "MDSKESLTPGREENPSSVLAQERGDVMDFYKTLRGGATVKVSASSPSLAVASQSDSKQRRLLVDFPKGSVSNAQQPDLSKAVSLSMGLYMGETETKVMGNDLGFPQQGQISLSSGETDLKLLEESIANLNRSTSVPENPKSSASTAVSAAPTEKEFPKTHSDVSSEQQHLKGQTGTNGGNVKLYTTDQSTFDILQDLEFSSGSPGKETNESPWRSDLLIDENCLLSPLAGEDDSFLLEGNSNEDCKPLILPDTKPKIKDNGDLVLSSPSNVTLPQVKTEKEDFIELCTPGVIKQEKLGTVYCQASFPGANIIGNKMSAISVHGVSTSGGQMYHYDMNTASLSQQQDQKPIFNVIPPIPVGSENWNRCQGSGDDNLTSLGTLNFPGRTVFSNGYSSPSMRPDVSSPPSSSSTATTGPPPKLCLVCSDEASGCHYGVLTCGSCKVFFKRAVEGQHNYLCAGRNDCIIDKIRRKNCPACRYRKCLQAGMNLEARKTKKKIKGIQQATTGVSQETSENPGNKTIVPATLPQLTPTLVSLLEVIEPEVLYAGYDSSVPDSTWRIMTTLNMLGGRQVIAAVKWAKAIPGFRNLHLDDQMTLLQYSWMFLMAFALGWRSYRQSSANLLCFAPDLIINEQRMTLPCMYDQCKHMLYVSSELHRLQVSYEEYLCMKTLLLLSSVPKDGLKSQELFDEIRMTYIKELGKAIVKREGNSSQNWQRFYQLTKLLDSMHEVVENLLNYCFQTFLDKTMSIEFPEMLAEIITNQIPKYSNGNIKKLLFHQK", "conditions": "hela s3"}, "Mu-type opioid receptor": {"molecular_target": "Mu-type opioid receptor (Homo sapiens, UniProt P35372)", "sequence (P35372 whole entry)": "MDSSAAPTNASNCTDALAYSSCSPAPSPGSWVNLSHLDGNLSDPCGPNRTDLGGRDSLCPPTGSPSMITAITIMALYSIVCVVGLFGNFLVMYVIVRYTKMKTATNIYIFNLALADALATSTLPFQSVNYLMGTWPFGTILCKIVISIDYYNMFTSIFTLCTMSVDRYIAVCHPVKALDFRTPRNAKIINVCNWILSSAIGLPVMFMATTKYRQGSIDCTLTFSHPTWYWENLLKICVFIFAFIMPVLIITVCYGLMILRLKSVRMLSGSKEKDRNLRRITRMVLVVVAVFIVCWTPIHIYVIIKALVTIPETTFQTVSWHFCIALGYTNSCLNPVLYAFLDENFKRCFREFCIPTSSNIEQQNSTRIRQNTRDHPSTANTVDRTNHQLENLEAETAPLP", "experiment": "DRUGMATRIX: Opiate mu (OP3, MOP) radioligand binding (ligand: [3H] Diprenorphine)", "format": "cell membranes, CHO-K1, Membrane", "conditions": "Not Active = under 50% inhibition at 10 µM"}, "Androgen receptor": {"molecular_target": "T2, Androgen receptor (Rattus norvegicus, UniProt P15207)", "T2 sequence (P15207 whole entry)": "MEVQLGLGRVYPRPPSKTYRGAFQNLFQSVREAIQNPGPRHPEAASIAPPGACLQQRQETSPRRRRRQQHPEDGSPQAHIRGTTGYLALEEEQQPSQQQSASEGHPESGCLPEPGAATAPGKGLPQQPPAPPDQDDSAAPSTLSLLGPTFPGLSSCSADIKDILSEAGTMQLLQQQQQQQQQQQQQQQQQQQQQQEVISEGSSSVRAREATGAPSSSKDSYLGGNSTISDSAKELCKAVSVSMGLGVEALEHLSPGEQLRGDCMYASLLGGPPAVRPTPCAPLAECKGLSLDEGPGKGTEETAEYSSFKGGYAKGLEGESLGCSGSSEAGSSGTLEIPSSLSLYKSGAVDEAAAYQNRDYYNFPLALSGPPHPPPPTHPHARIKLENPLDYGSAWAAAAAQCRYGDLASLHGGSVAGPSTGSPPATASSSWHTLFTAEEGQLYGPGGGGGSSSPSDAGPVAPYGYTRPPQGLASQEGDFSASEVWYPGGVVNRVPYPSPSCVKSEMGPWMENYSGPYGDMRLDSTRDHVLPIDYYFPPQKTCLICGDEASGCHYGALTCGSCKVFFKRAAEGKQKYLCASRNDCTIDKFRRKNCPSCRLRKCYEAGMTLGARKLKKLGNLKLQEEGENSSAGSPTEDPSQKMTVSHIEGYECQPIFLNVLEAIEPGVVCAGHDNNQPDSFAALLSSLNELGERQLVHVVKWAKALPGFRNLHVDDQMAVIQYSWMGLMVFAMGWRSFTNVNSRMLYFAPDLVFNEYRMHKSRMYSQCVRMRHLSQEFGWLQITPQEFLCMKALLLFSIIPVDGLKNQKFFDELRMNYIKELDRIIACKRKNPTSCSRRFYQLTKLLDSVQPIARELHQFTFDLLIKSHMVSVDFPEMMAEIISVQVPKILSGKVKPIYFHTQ"}, "Cytochrome P450 2C9 [2]": {"molecular_target": "T3, Cytochrome P450 2C9 (Homo sapiens, UniProt P11712)", "T3 sequence (P11712 whole entry)": "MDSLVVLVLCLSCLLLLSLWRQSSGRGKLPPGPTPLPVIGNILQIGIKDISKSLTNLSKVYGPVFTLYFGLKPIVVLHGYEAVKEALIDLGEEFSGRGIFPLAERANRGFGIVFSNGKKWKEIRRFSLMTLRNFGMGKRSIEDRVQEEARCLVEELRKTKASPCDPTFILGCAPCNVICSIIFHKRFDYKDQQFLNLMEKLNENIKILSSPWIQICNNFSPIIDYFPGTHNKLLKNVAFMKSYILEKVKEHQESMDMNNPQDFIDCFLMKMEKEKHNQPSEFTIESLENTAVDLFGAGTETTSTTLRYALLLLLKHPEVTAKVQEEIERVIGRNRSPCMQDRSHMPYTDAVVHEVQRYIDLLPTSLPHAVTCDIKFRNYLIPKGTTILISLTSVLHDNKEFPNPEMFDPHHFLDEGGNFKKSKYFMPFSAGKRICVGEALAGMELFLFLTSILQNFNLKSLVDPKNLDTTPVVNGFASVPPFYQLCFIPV"}, "[3]": {"molecular_target": "5-hydroxytryptamine receptor 2B (Homo sapiens, UniProt P41595)", "sequence (P41595 whole entry)": "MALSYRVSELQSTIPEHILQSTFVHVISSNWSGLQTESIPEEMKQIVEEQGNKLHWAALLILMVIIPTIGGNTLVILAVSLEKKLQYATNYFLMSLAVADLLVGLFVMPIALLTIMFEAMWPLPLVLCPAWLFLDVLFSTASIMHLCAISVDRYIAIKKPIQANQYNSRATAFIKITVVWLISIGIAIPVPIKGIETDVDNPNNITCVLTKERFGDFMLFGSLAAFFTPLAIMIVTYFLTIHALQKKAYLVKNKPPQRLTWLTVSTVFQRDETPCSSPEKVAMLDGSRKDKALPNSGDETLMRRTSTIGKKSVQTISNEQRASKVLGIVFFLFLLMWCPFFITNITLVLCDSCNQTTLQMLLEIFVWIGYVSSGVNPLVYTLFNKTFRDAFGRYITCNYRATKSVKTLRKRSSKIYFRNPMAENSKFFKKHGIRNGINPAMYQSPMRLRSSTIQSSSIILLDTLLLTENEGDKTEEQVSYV", "format": "cell membranes, CHO-K1, Membrane"}, "Cytochrome P450 2C9 [4]": {"molecular_target": "T3, Cytochrome P450 2C9", "conditions": "bti-tn-5b1-4"}, "Cytochrome P450 2D6": {"molecular_target": "Cytochrome P450 2D6 (Homo sapiens, UniProt P10635)", "sequence (P10635 whole entry)": "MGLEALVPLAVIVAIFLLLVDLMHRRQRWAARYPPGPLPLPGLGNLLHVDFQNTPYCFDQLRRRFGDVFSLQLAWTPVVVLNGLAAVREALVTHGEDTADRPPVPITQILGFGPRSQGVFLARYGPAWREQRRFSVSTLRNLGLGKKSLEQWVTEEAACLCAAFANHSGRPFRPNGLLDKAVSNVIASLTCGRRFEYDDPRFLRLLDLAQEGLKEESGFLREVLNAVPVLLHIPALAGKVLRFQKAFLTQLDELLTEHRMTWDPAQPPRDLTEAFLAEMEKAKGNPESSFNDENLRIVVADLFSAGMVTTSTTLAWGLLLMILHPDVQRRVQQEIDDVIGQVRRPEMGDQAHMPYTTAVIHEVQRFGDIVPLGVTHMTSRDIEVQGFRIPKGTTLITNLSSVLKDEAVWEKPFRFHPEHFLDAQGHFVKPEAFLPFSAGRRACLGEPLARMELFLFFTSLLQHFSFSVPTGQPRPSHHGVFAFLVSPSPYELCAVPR"}, "Glucocorticoid receptor [5]": {"molecular_target": "T1, Glucocorticoid receptor", "experiment": "biochemical"}}}
{"smiles": "COc1ccccc1C(=O)N1CCC(Cc2ccccc2)CC1", "values": [{"measurement": "IC50", "setting": "Cytochrome P450 2C19", "value": 800, "unit": "nM"}, {"measurement": "IC50", "setting": "Glucocorticoid receptor [1]", "value": "Not Active"}, {"measurement": "IC50", "setting": "Mu-type opioid receptor; cho-k1", "value": "Not Active"}, {"measurement": "IC50", "setting": "Androgen receptor", "value": "Not Active"}, {"measurement": "IC50", "setting": "Cytochrome P450 2C9 [2]", "value": 2000, "unit": "nM"}, {"measurement": "IC50", "setting": "[3]; cho-k1", "value": "Not Active"}]}
{"smiles": "Cc1ccccc1C(=O)N1CCC(Cc2ccccc2)CC1", "values": [{"measurement": "IC50", "setting": "Cytochrome P450 2C19", "value": 600, "unit": "nM"}, {"measurement": "IC50", "setting": "Glucocorticoid receptor [1]", "value": "Not Active"}, {"measurement": "IC50", "setting": "Mu-type opioid receptor; cho-k1", "value": "Not Active"}, {"measurement": "IC50", "setting": "Androgen receptor", "value": "Not Active"}, {"measurement": "IC50", "setting": "Cytochrome P450 2C9 [2]", "value": 1000, "unit": "nM"}, {"measurement": "IC50", "setting": "[3]; read-out: IC50", "value": 1860, "unit": "nM"}, {"measurement": "Ki", "setting": "[3]; read-out: Ki", "value": 1180, "unit": "nM"}]}
{"smiles": "N=C(Nc1ccccc1)Nc1ccccc1", "values": [{"measurement": "IC50", "setting": "Cytochrome P450 2C9 [4]", "value": "Not Active"}, {"measurement": "Ki", "setting": "Cytochrome P450 2C9 [4]", "value": "Not Active"}, {"measurement": "IC50", "setting": "Glucocorticoid receptor [1]", "value": "Not Active"}, {"measurement": "IC50", "setting": "Mu-type opioid receptor; cho-k1", "value": "Not Active"}, {"measurement": "IC50", "setting": "Cytochrome P450 2D6", "value": 3440, "unit": "nM"}, {"measurement": "IC50", "setting": "[3]; cho-k1", "value": "Not Active"}]}
{"smiles": "C[C@](O)(CS(=O)(=O)c1ccc(F)cc1)C(=O)Nc1ccc(C#N)c(C(F)(F)F)c1", "note": "[(R)-BICALUTAMIDE]", "values": [{"measurement": "IC50", "setting": "Cytochrome P450 2C19", "value": 1000, "unit": "nM"}, {"measurement": "IC50", "setting": "Cytochrome P450 2C9 [4]", "value": "Not Active"}, {"measurement": "Ki", "setting": "Cytochrome P450 2C9 [4]", "value": "Not Active"}, {"measurement": "IC50", "setting": "Glucocorticoid receptor [1]", "value": "Not Active"}, {"measurement": "IC50", "setting": "Mu-type opioid receptor; cho-k1", "value": "Not Active"}, {"measurement": "IC50", "setting": "[3]; cho-k1", "value": "Not Active"}]}
{"smiles": "CCCCN1CCCCC1C(=O)Nc1c(C)cccc1C.Cl", "note": "(centres undefined) [BUPIVACAINE HYDROCHLORIDE]", "values": [{"measurement": "IC50", "setting": "Cytochrome P450 2C9 [4]", "value": "Not Active"}, {"measurement": "Ki", "setting": "Cytochrome P450 2C9 [4]", "value": "Not Active"}, {"measurement": "IC50", "setting": "Mu-type opioid receptor; cho-k1", "value": "Not Active"}, {"measurement": "IC50", "setting": "Androgen receptor", "value": "Not Active"}, {"measurement": "IC50", "setting": "Cytochrome P450 2D6", "value": 400, "unit": "nM"}, {"measurement": "IC50", "setting": "[3]; cho-k1", "value": "Not Active"}]}
{"smiles": "CCN1CC(CCN2CCOCC2)C(c2ccccc2)(c2ccccc2)C1=O", "note": "(centres undefined) [DOXAPRAM]", "values": [{"measurement": "IC50", "setting": "Cytochrome P450 2C9 [4]", "value": "Not Active"}, {"measurement": "Ki", "setting": "Cytochrome P450 2C9 [4]", "value": "Not Active"}, {"measurement": "IC50", "setting": "Glucocorticoid receptor [1]", "value": "Not Active"}, {"measurement": "IC50", "setting": "Mu-type opioid receptor; cho-k1", "value": "Not Active"}, {"measurement": "IC50", "setting": "Cytochrome P450 2D6", "value": 100, "unit": "nM"}, {"measurement": "IC50", "setting": "[3]; cho-k1", "value": "Not Active"}]}
{"smiles": "CC1(C)O[C@@H]2C[C@H]3[C@@H]4C[C@H](F)C5=CC(=O)CC[C@]5(C)[C@H]4[C@@H](O)C[C@]3(C)[C@]2(C(=O)CO)O1", "note": "[FLURANDRENOLIDE]", "values": [{"measurement": "IC50", "setting": "Cytochrome P450 2C9 [4]", "value": "Not Active"}, {"measurement": "Ki", "setting": "Cytochrome P450 2C9 [4]", "value": "Not Active"}, {"measurement": "IC50", "setting": "Glucocorticoid receptor [5]", "value": 4.45, "unit": "nM"}, {"measurement": "Ki", "setting": "Glucocorticoid receptor [5]", "value": 2.02, "unit": "nM"}, {"measurement": "IC50", "setting": "Mu-type opioid receptor; cho-k1", "value": "Not Active"}, {"measurement": "IC50", "setting": "[3]; cho-k1", "value": "Not Active"}]}
{"smiles": "CN(C)c1ccc(C(=C2C=CC(=[N+](C)C)C=C2)c2ccc(N(C)C)cc2)cc1.[Cl-]", "note": "[GENTIAN VIOLET]", "values": [{"measurement": "IC50", "setting": "Glucocorticoid receptor [1]", "value": "Not Active"}, {"measurement": "IC50", "setting": "Mu-type opioid receptor; read-out: IC50", "value": 2150, "unit": "nM"}, {"measurement": "Ki", "setting": "Mu-type opioid receptor; read-out: Ki", "value": 871, "unit": "nM"}, {"measurement": "IC50", "setting": "Cytochrome P450 2D6", "value": 824, "unit": "nM"}, {"measurement": "IC50", "setting": "[3]; cho-k1", "value": "Not Active"}]}
{"smiles": "CCOC(=O)C1=C(C)NC(C)=C(C(=O)OC)C1c1cccc([N+](=O)[O-])c1", "note": "(centres undefined) [NITRENDIPINE]", "values": [{"measurement": "IC50", "setting": "Cytochrome P450 2C19", "value": 3000, "unit": "nM"}, {"measurement": "IC50", "setting": "Mu-type opioid receptor; cho-k1", "value": "Not Active"}, {"measurement": "IC50", "setting": "Cytochrome P450 2C9 [2]", "value": 300, "unit": "nM"}, {"measurement": "IC50", "setting": "[3]; cho-k1", "value": "Not Active"}]}
{"smiles": "C#C[C@]1(OC(C)=O)CC[C@H]2[C@@H]3CCC4=CC(=O)CC[C@@H]4[C@H]3CC[C@@]21C", "note": "[NORETHINDRONE ACETATE]", "values": [{"measurement": "IC50", "setting": "Cytochrome P450 2C19", "value": 800, "unit": "nM"}, {"measurement": "IC50", "setting": "Cytochrome P450 2C9 [4]", "value": "Not Active"}, {"measurement": "Ki", "setting": "Cytochrome P450 2C9 [4]", "value": "Not Active"}, {"measurement": "IC50", "setting": "Glucocorticoid receptor [5]", "value": 646, "unit": "nM"}, {"measurement": "Ki", "setting": "Glucocorticoid receptor [5]", "value": 293, "unit": "nM"}, {"measurement": "IC50", "setting": "Mu-type opioid receptor; cho-k1", "value": "Not Active"}, {"measurement": "IC50", "setting": "[3]; cho-k1", "value": "Not Active"}]}
{"smiles": "OC(CCN1CCCCC1)(c1ccccc1)C1CCCCC1", "note": "(centres undefined) [TRIHEXYPHENIDYL]", "values": [{"measurement": "IC50", "setting": "Cytochrome P450 2C9 [4]", "value": "Not Active"}, {"measurement": "Ki", "setting": "Cytochrome P450 2C9 [4]", "value": "Not Active"}, {"measurement": "IC50", "setting": "Mu-type opioid receptor; cho-k1", "value": "Not Active"}, {"measurement": "IC50", "setting": "Cytochrome P450 2D6", "value": 2450, "unit": "nM"}, {"measurement": "IC50", "setting": "[3]; cho-k1", "value": "Not Active"}]}
